Data on 1 molecule can be found in patent US10736968B2, “Cellular signalling inhibitors, their formulations and methods thereof” (INVICTUS ONCOLOGY PVT. LTD., priority 2016, dated 2020).

This assay relates to macrophages. As to the kind of experiment: Repolarization of IL4-skewed M2 macrophages to M1-like state after washout (FACS). It counts as cell-based. As to conditions: IL4 24 hours, inhibitor 4 hours, washed, fresh media 12-72 hours. On the procedure:
Activity Studies of Compound of Formula I • Efficacy of BLN101 vs BLZ945 on the ability to inhibit CSF1R in vitro is studied. RAW264.7 cells are treated with BLZ945 (67 nM) or BLN101 (67 nM) for different time points, at the end of which the cells were exposed to CSF1 (10 ng/ml) for 20 min. The cells were then lysed and analyzed for phosphorylated CSF1R levels. […] Efficacy of BLN101 (in formulation AK750) vs BLZ945 on increase in iNOS expression in vitro is studied. It is observed that exposure to Tumor Conditioned Media over 24 h decreases INOS levels. Measurement of the expression of iNOS in RAW264.7 cells at different time points after treatment with B-16-tumour conditioned media followed by BLZ-945 or BLN101 (as AK750 formulation) treatment across different time points. […] Treatment of monocytes with IL4 is known to facilitate the differentiation of monocytes into macrophages. Further, activation of CSF1R skews it to a M2 phenotype. […] At different time points analysis of the cells for expression of markers CD11b+CD206+, CD11b+MHC-II+, CD11b+CD86+ and CD11b+CD80+ on the cells using flow cytometry. […] (FIG. 4). […] At different time-points, the cells are harvested and analyzed the population for M1 (MHCII+, CD86+, CD80+) or M2 (CD206+) markers using fluorescence activated cell sorting (FIG. 5d). […]

In the case of `CNC(=O)c1cc(Oc2ccc3nc(N[C@@H]4CCCC[C@H]4O)sc3c2)ccn1` [BLZ-945], the “M1 markers (MHCII+, CD86+, CD80+)” value is listed as “did not increase the M1 markers” and the “M2 phenotype (CD206+)” value is “at early time-points is observed, but this effect was lost at later time points”.
